From patent publication US5891882A, “Benzopyranopyrrole and benzopyranopyridine α-1 adenergic compounds” (priority 1997, dated 1999)
Counter-ions that a name gives are not always drawn. Like-named read-outs stand apart in the source and are kept apart here.

Legend:
[1] = molecular target: T1, α-1A adrenoreceptor (rat submaxillary gland) (Rattus norvegicus, UniProt P43140); test: In vitro [3H]-prazosin radioligand binding, pharmacologically defined α-1A adrenoreceptor (rat submaxillary gland)
T1 construct: Rat submaxillary glands were used for α-1A adrenoreceptors; from tissue; host or cells: rat submaxillary gland membranes
T1 sequence (P43140 1-466): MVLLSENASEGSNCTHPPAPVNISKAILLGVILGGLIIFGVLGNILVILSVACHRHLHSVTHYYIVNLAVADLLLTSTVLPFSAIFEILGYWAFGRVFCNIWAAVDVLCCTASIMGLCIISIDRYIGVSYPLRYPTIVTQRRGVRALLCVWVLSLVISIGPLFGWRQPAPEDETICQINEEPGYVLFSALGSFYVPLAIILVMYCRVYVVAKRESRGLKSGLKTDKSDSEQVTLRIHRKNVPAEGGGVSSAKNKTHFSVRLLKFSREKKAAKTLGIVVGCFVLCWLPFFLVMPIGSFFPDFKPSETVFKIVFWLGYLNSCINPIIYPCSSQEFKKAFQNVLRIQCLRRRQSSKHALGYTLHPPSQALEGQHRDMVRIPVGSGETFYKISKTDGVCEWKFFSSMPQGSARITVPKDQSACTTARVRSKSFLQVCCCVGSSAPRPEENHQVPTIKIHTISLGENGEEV
Description: (§1) Additionally, binding affinity against the pharmacologically defined α-1A adrenoreceptor (rat submaxillary gland) was measured.
(§2) On the fifth day of culture, growth medium was removed from cells grown in roller bottles, and the cells were washed twice with PBS (Sigma, 120 mM NaCl, 2.7 mM KCl, 10 mM Na2 HPO4 --NaH2 PO4, pH=7.4). Cells were detached from the roller bottles by incubating for 15 minutes at 37° C. in a Tris-EDTA solution (10 mM Tris, 100 mM NaCl, 1 mM EDTA, pH=7.4). The cell suspension from each roller bottle was decanted into tared centrifuge tubes and kept on ice. An aliquot of each cell suspension was generally taken for cell counting. Cells were centrifuged at 3000×G for 5 min at 2°-4° C., washed with PBS and recentrifuged. The supernatant was decanted and the pellet weighed to determine the wet weight of cells. Cells were washed a final time in 40 vol 5 mM Tris-HCl, 5 mM EDTA, pH=7.7, and centrifuged at 40,000×G for 10 minutes. Cells were homogenized in 10 mL of 50 mM Tris-HCl, 5 mM EDTA (pH=7.4) and diluted to 40 mL/tube. Homogenates were centrifuged at 40,000×G for 10 minutes. The supernatant was decanted and the pellets rehomogenized in 50 mM Tris-HCl (pH=7.4) and centrifuged as before. The supernatant was decanted and the homogenate resuspended in 6.25 volumes (per gram wet weight) of 50 mM Tris-HCl and aliquots of the pooled homogenates frozen in liquid N2 and stored at -70° C. until the time of assay. Rat submaxillary glands were used for α-1A adrenoreceptors and were prepared essentially as described (Michel, A. D., Loury, D. N. and Whiting, R. L., Brit. J. Pharmacol. 98: 83-889 (1989)).
(§3) Receptor binding assays for α-1 adrenoreceptors were performed essentially as described by Greengrass and Bremner (Eur. J. Pharmacol. 55: 323-326 (1979)). […] Radioactivity was determined by standard liquid scintillation techniques. Data were analyzed as previously described (Hancock, A. A., Kyncl, J. J., Martin, Y. C. and DeBernardis, J. F., J Receptor Res. 8: 23-46 (1988)).

[2] = molecular target: T2, α-1d adrenoreceptor (rat) (Rattus norvegicus, UniProt P23944); test: In vitro [3H]-prazosin radioligand binding, cloned α-1d adrenoreceptor expressed in LTK cells
T2 construct: expressed in transfected cells; cDNA from TULCO; membranes
T2 sequence (P23944 1-561): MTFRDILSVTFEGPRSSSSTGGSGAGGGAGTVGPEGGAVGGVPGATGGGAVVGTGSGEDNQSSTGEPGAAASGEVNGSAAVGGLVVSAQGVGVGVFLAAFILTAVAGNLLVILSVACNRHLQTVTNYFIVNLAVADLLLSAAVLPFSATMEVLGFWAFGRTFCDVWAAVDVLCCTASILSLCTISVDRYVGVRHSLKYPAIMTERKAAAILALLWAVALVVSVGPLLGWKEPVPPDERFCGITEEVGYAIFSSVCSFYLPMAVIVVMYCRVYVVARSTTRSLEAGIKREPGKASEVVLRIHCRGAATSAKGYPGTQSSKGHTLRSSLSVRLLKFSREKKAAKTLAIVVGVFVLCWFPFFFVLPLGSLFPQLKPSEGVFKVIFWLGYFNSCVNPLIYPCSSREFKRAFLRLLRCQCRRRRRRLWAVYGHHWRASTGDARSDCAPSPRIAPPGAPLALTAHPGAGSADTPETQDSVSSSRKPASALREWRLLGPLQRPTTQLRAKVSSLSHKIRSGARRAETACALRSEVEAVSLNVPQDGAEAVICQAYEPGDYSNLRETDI
Description: as §1
The cDNA clones encoding the α-1 adrenoreceptors (α-1a, α-1b, and α-1d) were obtained from TULCO (Triangle Universities Licensing Consortium, Research Triangle Park, N.C.) and inserted into the eukaryotic expression vector SnaB30. In this vector, expression of the adrenoreceptor gene is under the transcriptional control of an SV40 early promoter. Positive drug selection is provided by a neomycin-resistance gene. Mouse fibroblast cells (LTK) were transfected with the α1 expression plasmids and grown in Dulbecco's modified Eagle's medium (DMEM) containing 10% fetal calf serum and […]. Stable G418-resistant parental lines were generated, with successful expression of adrenoreceptor protein monitored using radioligand binding techniques. Stable single cell clones derived from the parental lines were screened in adrenoreceptor binding assays to identify clones having high adrenoreceptor density. Roller bottle cultures of the cloned lines were used to provide cell membranes for subsequent adrenoreceptor binding characterization studies. A cell line containing the SnaB30 vector expressing the human erythropoietin gene served as a negative control.
For adrenoreceptor binding assays, large scale membrane preparations were utilized in which 6 million cells were seeded into small (450 cm^2) Corning tissue culture roller bottles. 200 mL of DMEM containing 10% fetal calf serum and 300 μM G418 were added to each roller bottle. A 95% air/5% CO2 gas mixture (sterile) was injected into each roller bottle prior to sealing. The bottles were then incubated at 37° C. on a roller rack for 5 days. Cells were re-fed with fresh medium after 3 days in culture.
as §2, §3

[3] = rat submaxillary gland, [3H]prazosin 0.2 nM, read-out: Radioligand Binding (Ki; nM) 1A (Rat)
[4] = cloned rat α-1d in LTK cells, [3H]prazosin 0.2 nM, read-out: Radioligand Binding (Ki; nM) 1d (Rat)

Ki [1, 3] [nM] | Ki [2, 4] [nM] | SMILES | Ki [1] [nM] | Ki [2] [nM]
 |  | COc1cccc2c1[C@@H]1CCN(CCCCn3c(=O)[nH]c4c(sc5ccccc54)c3=O)C[C@H]1CO2 (relative stereo) [Example 87, 3-[4-((±)-trans-10-Methoxy-1,3,4,4a,5,10b-hexahydro-2H-[1]-benzopyrano[3,4-c]pyrido-3-yl)butyl]-[1]-benzthieno[3,2-d]pyrimidine-2,4(1H,3H)-dione hydrochloride] | 0.371 | 0.704
0.102 | 0.495 | COc1cc2[nH]c(=O)n(CCN3CC[C@H]4c5c(OC)cccc5OC[C@@H]4C3)c(=O)c2cc1OC (relative stereo) [Example 91, 3-[2-((±)-trans-10-Methoxy-1,3,4,4a,5,10b-hexahydro-2H-[1]-benzopyrano[3,4-c]pyrido-3-yl)ethyl]-6,7-dimethoxy-quinazoline-2,4(1H,3H)-dione hydrochloride] |  | 
0.811 | 0.701 | COc1ccc2c(n1)sc1c(=O)n(CCCCN3C[C@@H]4COc5cccc(OC)c5[C@@H]4C3)c(=O)[nH]c12 [Example 33, hydrochloride] |  | 
 |  | COc1cccc2c1[C@@H]1CCN(CCCCn3c(=O)[nH]c4c(sc5cccnc54)c3=O)C[C@H]1CO2 (relative stereo) [Example 88, 3-[4-((±)-trans-10-Methoxy-1,3,4,4a,5,10b-hexahydro-2H-[1]-benzopyrano[3,4-c]pyrido-3-yl)butyl]-pyrido[2',3':4,5]thieno[3,2-d]pyrimidine-2,4(1H,3H)-dione hydrochloride] | 0.188 | 0.259
